Reference: patent US11420976B2 (priority 2020, dated 2022)

What was measured:
HRSV = conditions: high risk infants, prophylactic use; cited from earlier work
[1] = test system: Human RSV-A (“Long” strain); experiment: RSV-A assay (CPE, ATPlite readout in Hep-2 cells); type: cell-based; conditions: human respiratory syncytial virus, 120 h; Hep-2 cells, MOI 0.1, 5-day incubation, ATPlite; read-out: Human RSV-A (“Long” strain) EC50
Method in brief: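 Hep-2 cells (8,000/well) infected with RSV-A Long at MOI 0.1 in the presence of 2-fold compound dilutions, in duplicate. After 5 days, protection from cytopathic effect read as cellular ATP by ATPlite luminescence, with virus-only and cell-only controls; EC50 reported.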

[2] = test system: rHMPV-GFP (recombinant HMPV CAN97-83, MPV-GFP1); experiment: HMPV antiviral assay (eGFP fluorescence in Vero E6 cells); type: cell-based; conditions: Vero C1008, 120 h, read-out: rHMPV-GFP EC50
Procedure: HMPV antiviral activity was evaluated using a recombinant version of HMPV CAN97-83 engineered to contain the coding sequence for enhanced green fluorescence protein (eGFP) in the 3′ end of the virus genome (MPV-GFP1, ViraTree). Vero E6 cells (ATCC #CCL-7) were seeded at a density of 12,000 cells/100 μL/well into 96-well cell plates (VENDOR) one day prior to the assay. On the day of screening, the cell culture medium was aspirated from the wells and cells were washed twice with serum-free Eagle's Modified Essential Medium (EMEM, ATCC #) containing 1% penicillin-streptomycin (Invitrogen) (SF-EMEM). Cell washes were performed by dispensing 100 μL SF-EMEM per well and immediately aspirating the wash medium from the well. Following the second wash step, serum-free OptiMEM (Invitrogen, Cat No.) (SF-OptiMEM) containing 0.5 μg/mL TPCK-Trypsin (VENDOR) and 1% penicillin-streptomycin was added to the cells at 50 μL/well. Compounds were added into the 96-well plates using a JANUS automated liquid handling system (VENDOR). Compounds were initially diluted 1:50 into an intermediate 96-well plate containing SF-OptiMEM prior to transfer to the assay plate (25 μL/well). Each of the test compounds was tested in duplicate wells at final concentrations starting from 8 μM or 2 μM using ½ stepwise dilutions for a total of 8 points. Virus infection was performed by preparing a working stock of MPV-GFP1 at a multiplicity of infection (MOI) equal to 0.05/25 μL and aliquoting 25 μL of virus inoculum to the compound and positive control wells. SF-OptiMEM was added (25 μL/well) to the appropriate wells to serve as a virus-free negative control for the assay. The final DMSO concentration of all wells is 0.5%. Plates were incubated at 32° C., 5% CO2 for 5 days. After 5 days incubation, eGFP fluorescence intensity was measured at […] using a Spectramax i3X plate reader (VENDOR). Percent viral inhibition was calculated using the following equation: y=[[…]]×100 Where XQ is the fluorescence intensity measured in a well containing recombinant MPV-GFP1-infected, compound-treated cells and XP is the average fluorescence intensity measured in the wells containing untreated cells infected with recombinant virus. EC50 values were then calculated by non-linear regression using a four parameter curve logistic equation. The curve fit model employed was XLFit Dose Response One Site Model 200: y=(A+(B/(1+((x/C)^D)))) Where A is the minimum y value, B is the maximum y value, C is the log EC50 value, and D is the slope factor. The EC50 of each compound is listed in Table 2 and EC50 ranges are as follows: A<0.2 μM; B≥0.2 μM.

| Compound | effective in reducing hospitalizations (HRSV) | EC50 [1] | EC50 [2] |
| --- | --- | --- | --- |
| Palivizumab | 60% |  |  |
| COc1cc(C(=O)NC[C@](O)(c2cc3c(c(-c4ccc(F)cc4)n2)OC[C@@]3(N)C(F)(F)F)C2CC2)cc2cccnc12 [Example 10] |  | < 200 nM | > 200 nM |
